Laboratory results taken from publication PMC4444405 (Chemical biology & drug design, 2014).
Like-named read-outs stand apart in the source and are kept apart here. Square brackets hold non-standard residues; d marks the D form. Ends that are not written are not given here. pY = N[C@@H](Cc1ccc(OP(=O)(O)O)cc1)C(=O)O

Columns and labels:
Src-YEEI [1] = molecular target: T1, Src-YEEI (Homo sapiens, UniProt P12931); format: biochemical; conditions: read-out: IC50, Src-YEEI alone, ADP Quest
[2] = molecular target: T2, Src-YEEI:pFAK peptide complex (Homo sapiens, UniProt P12931); assay: Z'Lyte end-point in vitro kinase assay, Src-YEEI in presence of pFAK peptide; format: biochemical; conditions: compound 10 μM; Z'Lyte library screen
[3] = system: Src-YEEI:pFAK peptide complex; assay: as above; format: biochemical, human; conditions: ratio of the IC50 values for Src-YEEI:pFAK peptide complex and Src-YEEI alone, Z'Lyte
[4] = molecular target: T2, Src-YEEI:pFAK peptide complex; format: biochemical; conditions: read-out: IC50, Src-YEEI + pFAK, ADP Quest
[5] = system: Src-YEEI:pFAK peptide complex; format: biochemical, human; conditions: ratio of the IC50 values for Src-YEEI:pFAK peptide complex and Src-YEEI alone, ADP Quest
Src-YEEI [6] = molecular target: T1, Src-YEEI; format: biochemical
Src-YEEI [7] = molecular target: T1, Src-YEEI; format: biochemical; remark: listed apart in the source
Src-YEEI [8] = molecular target: T1, Src-YEEI; format: biochemical; remark: listed apart in the source

Compound | IC50 (Src-YEEI [1]) | percent inhibition of Src-YEEI:pFAK peptide complex in the screening assay [2] | Selectivity ratio, Z'Lyte [3] | IC50 [4] | Selectivity ratio, ADP Quest [5] | percent inhibition of Src-YEEI alone in the screening assay (Src-YEEI [6]; 10 µM) | IC50 (Src-YEEI [6]; read-out: IC50, Src-YEEI alone, Z'Lyte) | rate of ADP production by Src-YEEI in presence of peptide (Src-YEEI [7]) | percent of maximal activation of Src-YEEI (Src-YEEI [8])
COc1ccc(N(C(=O)Oc2c(C)cccc2C)c2ccnc(Nc3ccc(N4CCN(C)CC4)cc3)n2)c(OC)c1 [WH-4-023] | 19 nM | more than 70% | 0.94 | 25 nM | 0.76 | more than 70% | 1280 nM | – | –
AAAARALPSIPKLAN NEKQGVRSHTVSVSETDDY^PAEIID (AAAARALPSIPKLANNEKQGVRSHTVSVSETDD[pY]AEIID) [pFAK] | – | – | – | – | – | – | – | 1.0 pmol ADP produced/min | 40%
